Experimental data taken from patent publication US9943529B2, “Methods for reducing cellular proliferation and treating certain diseases” (BRIGHAM YOUNG UNIVERSITY, priority 2013, dated 2018).

What was measured:
Settings in all cases: 10 μM, 48 hours
HOP-92 = system: HOP-92
SNB-19 = system: SNB-19
A549/ATCC = system: A549/ATCC
SW-620 = assay: NCI screen antiproliferative activity, sulforhodamine B, Colon Cancer panel; format: cell-based, human
A498 = assay: NCI screen antiproliferative activity, sulforhodamine B, Renal Cancer panel; format: cell-based, human
Procedure: (§1) The antiproliferative activity of compounds were determined in the National Cancer Institute (NCI) screen (Drug. Dev. Res. 1995, 34, 91-109; J. Natl. Cancer Inst. 1990, 82, 1107-1112; Drug Dev. Res. 1995, 34, 91-109). For certain compounds, cells of approximately 60 different human cancer cell lines were incubated for 48 hours with five 10-fold dilutions of the tested compounds starting from 100 μM and then treated with sulforhodamine B dye. For other compounds, cells of approximately 60 different human cancer cell lines were incubated for 48 hours with a concentration of 10 μM test compound. The ratios of recorded optical densities relative to that of the control were plotted as a function of the common logarithm of the tested compound concentrations or growth percent (for single concentration tests). The interpolation between the points located above and below the 50% percentage growth provided 50% growth inhibition (GI50) values. Total growth inhibition (TGI) and 50% lethal concentrations (LC50) were also calculated using reported methods. A “-” means not tested and/or not-determined.

HOP-62 = system: HOP-62
M14 = system: M14
HCT-15 = system: HCT-15
SK-OV-3 = system: SK-OV-3
PC-3 = system: PC-3
RXF 393 = system: RXF 393
OVCAR-3 = system: OVCAR-3
SK-MEL-28 = system: SK-MEL-28
IGROV1 = system: IGROV1
CAKI-1 = system: CAKI-1
NCI-H522 = system: NCI-H522
COLO 205 = assay: NCI screen antiproliferative activity, sulforhodamine B, Colon Cancer panel; format: cell-based, human
MDA-MB-435 = system: MDA-MB-435
NCI-H23 = system: NCI-H23
HCT-116 = system: HCT-116
MDA-MB-231/ATCC = system: MDA-MB-231/ATCC
SF-268 = system: SF-268
NCI-H460 = system: NCI-H460
SK-MEL-5 = assay: NCI screen antiproliferative activity, sulforhodamine B, Melanoma panel; format: cell-based, human
NCI-H322M = system: NCI-H322M
BT-549 = system: BT-549
HS 578T = assay: NCI screen antiproliferative activity, sulforhodamine B, Breast Cancer panel; format: cell-based, human
SNB-75 = system: SNB-75
MDA-MB-468 = assay: NCI screen antiproliferative activity, sulforhodamine B, Breast Cancer panel; format: cell-based, human
Procedure: as §1

TK-10 = system: TK-10
RPMI-8226 = assay: NCI screen antiproliferative activity, sulforhodamine B, Leukemia panel; format: cell-based, human
MCF7 = system: MCF7
HCC-2998 = system: HCC-2998
UACC-62 = system: UACC-62
MOLT-4 = assay: NCI screen antiproliferative activity, sulforhodamine B, Leukemia panel; format: cell-based, human
T-47D = system: T-47D
DU-145 = system: DU-145
OVCAR-8 = system: OVCAR-8
SR = assay: NCI screen antiproliferative activity, sulforhodamine B, Leukemia panel; format: cell-based, human
SF-539 = system: SF-539
NCI-H226 = system: NCI-H226
HT29 = system: HT29
MALME-3M = assay: NCI screen antiproliferative activity, sulforhodamine B, Melanoma panel; format: cell-based, human
KM12 = assay: NCI screen antiproliferative activity, sulforhodamine B, Colon Cancer panel; format: cell-based, human
ACHN = system: ACHN
SN12C = system: SN12C
LOX IMVI = assay: NCI screen antiproliferative activity, sulforhodamine B, Melanoma panel; format: cell-based, human
OVCAR-5 = system: OVCAR-5
786-0 = system: 786-0
K-562 = assay: NCI screen antiproliferative activity, sulforhodamine B, Leukemia panel; format: cell-based, human
OVCAR-4 = system: OVCAR-4
NCI/ADR-RES = assay: NCI screen antiproliferative activity, sulforhodamine B, Ovarian Cancer panel; format: cell-based, human
Procedure: as §1

UO-31 = system: UO-31
CCRF-CEM = assay: NCI screen antiproliferative activity, sulforhodamine B, Leukemia panel; format: cell-based, human
Procedure: as §1

HL-60(TB) = assay: as above; format: cell-based, human
Procedure: as §1

## CCCCCCCCCCCCCCCCNCCCC(C)C1CCC2C3C(OCCCN)CC4CC(OCCCN)CCC4(C)C3CC(OCCCN)C12C.Cl.Cl.Cl.Cl (stereo not shown) [CSA-92]
HOP-92
  Growth Percent: −33.16%
SNB-19
  Growth Percent: −66.56%
A549/ATCC
  Growth Percent: −57.98%
SW-620
  Growth Percent: −25.31%
A498
  Growth Percent: −5.88%
HOP-62
  Growth Percent: −49.53%
M14
  Growth Percent: −28.70%
HCT-15
  Growth Percent: 7.08%
SK-OV-3
  Growth Percent: −45.67%
PC-3
  Growth Percent: −14.45%
RXF 393
  Growth Percent: −41.21%
OVCAR-3
  Growth Percent: −10.46%
SK-MEL-28
  Growth Percent: −64.73%
IGROV1
  Growth Percent: −41.76%
CAKI-1
  Growth Percent: −70.80%
NCI-H522
  Growth Percent: −43.60%
COLO 205
  Growth Percent: −40.80%
MDA-MB-435
  Growth Percent: −28.31%
NCI-H23
  Growth Percent: −39.72%
HCT-116
  Growth Percent: −16.64%
MDA-MB-231/ATCC
  Growth Percent: −98.22%
SF-268
  Growth Percent: −38.18%
NCI-H460
  Growth Percent: −45.47%
SK-MEL-5
  Growth Percent: 3.14%
NCI-H322M
  Growth Percent: −76.83%
BT-549
  Growth Percent: −26.02%
HS 578T
  Growth Percent: −34.00%
SNB-75
  Growth Percent: −64.78%
MDA-MB-468
  Growth Percent: −55.21%
TK-10
  Growth Percent: −60.33%
RPMI-8226
  Growth Percent: −15.39%
MCF7
  Growth Percent: −44.27%
HCC-2998
  Growth Percent: −32.41%
UACC-62
  Growth Percent: −64.22%
MOLT-4
  Growth Percent: −33.70%
T-47D
  Growth Percent: −20.87%
DU-145
  Growth Percent: −82.24%
OVCAR-8
  Growth Percent: −48.90%
SR
  Growth Percent: 2.63%
SF-539
  Growth Percent: −68.05%
NCI-H226
  Growth Percent: −1.42%
HT29
  Growth Percent: −40.97%
MALME-3M
  Growth Percent: −60.74%
KM12
  Growth Percent: −24.28%
ACHN
  Growth Percent: −26.45%
SN12C
  Growth Percent: −82.86%
LOX IMVI
  Growth Percent: −60.40%
OVCAR-5
  Growth Percent: −3.67%
786-0
  Growth Percent: −43.08%
K-562
  Growth Percent: −34.68%
OVCAR-4
  Growth Percent: −37.10%
NCI/ADR-RES
  Growth Percent: −60.60%
UO-31
  Growth Percent: −52.51%
CCRF-CEM
  Growth Percent: −45.52%
HL-60(TB)
  Growth Percent: 4.50%

## CCCCCN(CCCCC)CCC[C@@H](C)[C@H]1CC[C@H]2[C@@H]3[C@H](OCCCN)C[C@@H]4C[C@H](OCCCN)CC[C@]4(C)[C@H]3C[C@H](OCCCN)[C@]12C [CSA-90]
HOP-92
  Growth Percent: 50.03%
SNB-19
  Growth Percent: 61.03%
A549/ATCC
  Growth Percent: 55.21%
SW-620
  Growth Percent: 45.90%
A498
  Growth Percent: 92.77%
HOP-62
  Growth Percent: 48.28%
M14
  Growth Percent: 42.81%
HCT-15
  Growth Percent: 72.31%
SK-OV-3
  Growth Percent: 93.22%
PC-3
  Growth Percent: 80.53%
RXF 393
  Growth Percent: 87.11%
OVCAR-3
  Growth Percent: 107.13%
SK-MEL-28
  Growth Percent: 27.91%
IGROV1
  Growth Percent: 29.55%
CAKI-1
  Growth Percent: 75.81%
NCI-H522
  Growth Percent: 28.85%
COLO 205
  Growth Percent: 52.08%
MDA-MB-435
  Growth Percent: −13.61%
NCI-H23
  Growth Percent: 49.16%
HCT-116
  Growth Percent: 22.71%
MDA-MB-231/ATCC
  Growth Percent: 36.97%
SF-268
  Growth Percent: 87.47%
NCI-H460
  Growth Percent: 45.20%
SK-MEL-5
  Growth Percent: 25.14%
NCI-H322M
  Growth Percent: 24.61%
BT-549
  Growth Percent: 54.97%
HS 578T
  Growth Percent: 66.91%
SNB-75
  Growth Percent: 70.61%
MDA-MB-468
  Growth Percent: 71.06%
RPMI-8226
  Growth Percent: −17.73%
MCF7
  Growth Percent: 74.77%
HCC-2998
  Growth Percent: 59.63%
UACC-62
  Growth Percent: 13.55%
MOLT-4
  Growth Percent: 41.11%
T-47D
  Growth Percent: 68.11%
DU-145
  Growth Percent: 76.50%
OVCAR-8
  Growth Percent: 55.32%
SR
  Growth Percent: 19.21%
SF-539
  Growth Percent: −21.94%
NCI-H226
  Growth Percent: 75.25%
HT29
  Growth Percent: 24.49%
MALME-3M
  Growth Percent: 62.21%
KM12
  Growth Percent: 22.46%
ACHN
  Growth Percent: 54.72%
SN12C
  Growth Percent: 54.27%
LOX IMVI
  Growth Percent: 3.00%
OVCAR-5
  Growth Percent: 66.15%
786-0
  Growth Percent: 61.11%
K-562
  Growth Percent: −19.42%
OVCAR-4
  Growth Percent: 85.16%
NCI/ADR-RES
  Growth Percent: 76.04%
UO-31
  Growth Percent: 65.22%
CCRF-CEM
  Growth Percent: 15.29%
HL-60(TB)
  Growth Percent: −16.84%
